Results from patent EP1157024B1, “ACETYLENIC ORTHO-SULFONAMIDO AND PHOSPHINIC ACID AMIDO BICYCLIC HETEROARYL HYDROXAMIC ACIDS AS TACE INHIBITORS” (American Cyanamid Company, priority 1999, dated 2000).
Like-named read-outs stand apart in the source and are kept apart here.

Assays:
MMP-9 = MMP-9 (Homo sapiens, UniProt P14780); assay: MMP-9 inhibition (thiopeptide or fluorescent peptide substrate); type: biochemical
Method: (§1) The enzyme activity is measured by the rate of the color increase. The thiopeptide substrate is made up fresh as a 20 mM stock in 100% DMSO and the DTNB is dissolved in 100% DMSO as a 100 mM stock and stored in the dark at room temperature. Both the substrate and DTNB are diluted together to 1 mM with substrate buffer (50 mM HEPES pH 7.5, 5 mM CaCl2) before use. The stock of enzyme is diluted with buffer (50 mM HEPES, pH 7.5, 5 mM CaCl2, 0.02% Brij) to the desired final concentration.
(§2) Alternatively, a fluorescent peptide substrate is used. In this test procedure, the peptide substrate contains a fluorescent group and a quenching group. Upon cleavage of the substrate by an MMP, the fluorescence that is generated is quantitated on the fluorescence plate reader. The assay is run in HCBC assay buffer (50mM HEPES, pH 7.0, 5 mM Ca^+2, 0.02% Brij, 0.5% Cysteine), with human recombinant MMP-1, MMP-9, or MMP-13. The substrate is dissolved in methanol and stored frozen in 1 mM aliquots. For the assay, substrate and enzymes are diluted in HCBC buffer to the desired concentrations. Compounds are added to the 96 well plate containing enzyme and the reaction is started by the addition of substrate.
(§3) For either the thiopeptide or fluorescent peptide test procedures, the slope of the line is calculated and represents the reaction rate. The linearity of the reaction rate is confirmed (r^2 >0.85).

THP-1 cells = assay: THP-1 soluble protein assay (human monocytic THP-1 cell differentiation assay); type: cell-based; conditions: read-out: THP % inhibition at 3µM, LPS-stimulated THP-1 cells
Source text: Mitogenic stimulation of THP-1 cells cause differentiation into macrophage like cells with concomitant secretion of tumor necrosis factor (TNF-•) and TNF receptor (TNF-R p75/80 and TNF-R p55/60) and Interleukin-8 (IL-8), among other proteins. In addition, non-stimulated THP-1 cells shed both the p75/80 and the p55/60 receptors over time. […] THP-1 cells (from ATCC) are a human monocytic cell line which were obtained from the peripheral blood of a person with acute monocytic leukemia. They can be grown in culture and differentiated into macrophage like cells by stimulation with mitogens. For the assay, THP-1 cells are seeded from an ATCC stock which was previously grown and frozen back at 5 x 10^6/ml/vial. […] Each vial of cells are cultured for about two weeks prior to being used for an assay and then are used for only 4 to 6 weeks to screen compounds. Cells are subcultured on Mondays and Thursdays to a concentration of 1 x 10^5/ml. […] At the same time, […] of drug, vehicle or THP-1 media is plated in appropriate wells to give a final volume of 1.2 ml/well. […] Cell exposure to DMSO was limited to 0.1 % final concentration. Positive control wells were included in the experiment which had mitogen added but no drug. Vehicle control wells were included as well, which were identical to the positive control wells, except that DMSO was added to give a final concentration of 0.083%. Negative control wells were included in the experiment which had vehicle but no mitogen or drug added to the cells. Compounds can be evaluated for their effect on basal (non-stimulated) shedding of the receptors by replacing the LPS with […] of THP-1 media. Plates are placed into an incubator set at 5% CO2 and at 37 °C. After 4 hours of incubation, […] of tissue culture supernatant (TCS) is removed for use in an TNF-α ELISA. Following 24 hours of incubation, […] of TCS is removed and used for analysis in TNF-R p75/80, TNF-R p55/60 and IL-8 ELISAs. In addition, at the 24 hours timepoint, and the cells for each treatment group are collected by resuspension in 500 µl/well of THP-1 media and transferred into a FACS tube. Two ml/tube of a 0.5 mg/ml stock of propidium iodide (PI) (Boerhinger Mannheim cat. # 1348639) is added. The samples are run on a Becton Dickinson FaxCaliber FLOW cytometry machine and the amount of dye taken up by each cell is measured in the high red wavelength (FL3). Only cells with compromised membranes (dead or dying) can take up PI. The percent of live cells is calculated by the number of cells not stained with PI, divided by the total number of cells in the sample. The viability values calculated for the drug treated groups were compared to the viability value calculated for the vehicle treated mitogen stimulated group ("vehicle positive control") to determine the "percent change from control". This "percent change from control" value is an indicator of drug toxicity. The quantity of soluble TNF-α, TNF-R p75/80 and TNF-R p55/60 and IL-8 in the TCS of the THP-1 cell cultures are obtained with commercially available ELISAs from R&D Systems, by extrapolation from a standard curve generated with kit standards. The number of cells that either take up or exclude PI are measured by the FLOW cytometry machine and visualized by histograms using commercially available Cytologic software for each treatment group including all controls. […]

[1] = target: TNF-α converting enzyme (TACE) (Homo sapiens, UniProt P78536); assay: TACE inhibition (fluorescent peptidyl substrate); type: biochemical
Sequence of TNF-α converting enzyme (TACE) (P78536 215-824, species assumed): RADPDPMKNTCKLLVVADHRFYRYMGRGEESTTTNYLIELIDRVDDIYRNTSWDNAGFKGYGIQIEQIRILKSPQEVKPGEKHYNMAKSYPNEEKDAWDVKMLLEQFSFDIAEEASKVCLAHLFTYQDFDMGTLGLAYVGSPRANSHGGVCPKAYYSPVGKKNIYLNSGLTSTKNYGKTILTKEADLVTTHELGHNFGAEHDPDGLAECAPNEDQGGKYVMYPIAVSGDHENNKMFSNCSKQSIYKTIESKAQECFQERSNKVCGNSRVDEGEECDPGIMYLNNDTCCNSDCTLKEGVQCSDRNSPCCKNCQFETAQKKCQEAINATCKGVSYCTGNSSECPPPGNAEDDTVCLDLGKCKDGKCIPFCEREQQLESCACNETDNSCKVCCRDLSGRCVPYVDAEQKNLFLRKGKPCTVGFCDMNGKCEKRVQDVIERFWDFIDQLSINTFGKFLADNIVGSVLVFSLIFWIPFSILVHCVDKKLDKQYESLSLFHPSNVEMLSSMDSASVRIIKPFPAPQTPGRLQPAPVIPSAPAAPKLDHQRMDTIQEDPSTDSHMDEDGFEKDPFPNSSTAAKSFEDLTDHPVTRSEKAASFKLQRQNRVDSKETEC
Method: Using 96-well black microtiter plates, each well receives a solution composed of 10 µL TACE (final concentration 1µg/mL), 70µL Tris buffer, pH 7.4 containing 10% glycerol (final concentration 10 mM), and 10 µL of test compound solution in DMSO (final concentration 1µM, DMSO concentration <1%) and incubated for 10 minutes at room temperature.
The reaction is read (excitation 340 nm, emission 420 nm) for 10 min. and the increase in fluorescence over time is plotted as a linear line. The slope of the line is calculated and represents the reaction rate.
The linearity of the reaction rate is confirmed (r^2 >0.85). The mean (x±em) of the control rate is calculated and compared for statistical significance (p<0.05) with drug-treated rates using Dunnett's multiple comparison test.

MMP-13 = MMP-13 (Homo sapiens, UniProt P45452); assay: MMP-13 inhibition (thiopeptide or fluorescent peptide substrate); type: biochemical
Method: as §1, §2, §3

Sequence of MMP-9 (P14780 94-707): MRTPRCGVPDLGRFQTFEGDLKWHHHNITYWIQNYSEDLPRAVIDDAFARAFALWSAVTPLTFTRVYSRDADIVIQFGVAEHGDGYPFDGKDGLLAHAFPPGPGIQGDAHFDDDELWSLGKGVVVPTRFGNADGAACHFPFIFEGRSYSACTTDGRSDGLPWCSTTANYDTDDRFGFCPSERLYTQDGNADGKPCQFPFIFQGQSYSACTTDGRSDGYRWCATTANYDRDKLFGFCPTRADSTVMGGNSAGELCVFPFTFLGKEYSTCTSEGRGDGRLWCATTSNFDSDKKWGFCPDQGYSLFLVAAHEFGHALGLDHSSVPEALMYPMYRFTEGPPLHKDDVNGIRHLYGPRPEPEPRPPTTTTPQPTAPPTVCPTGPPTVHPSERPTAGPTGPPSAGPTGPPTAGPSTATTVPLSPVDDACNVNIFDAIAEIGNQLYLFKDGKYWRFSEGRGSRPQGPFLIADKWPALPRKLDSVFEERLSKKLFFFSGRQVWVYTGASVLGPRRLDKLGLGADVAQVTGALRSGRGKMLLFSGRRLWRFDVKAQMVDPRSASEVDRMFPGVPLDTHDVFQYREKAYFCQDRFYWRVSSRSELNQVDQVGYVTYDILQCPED

SMILES	IC50 (MMP-9) [nM]	inhibition at 3 µM (THP-1 cells) [%]	IC50 [1] [nM]	IC50 (MMP-13; read-out: MMP-13 IC50) [nM]	IC50 (MMP-13) [nM]	IC50 ([1]; read-out: TACE IC50) [nM]
CC#CCOc1ccc(S(=O)(=O)N(C)c2c(C(=O)NO)cnc3c2c(C)nn3C)cc1 [Example 7, 4-[(4-But-2-ynyloxy-benzenesulfonyl)-methyl-amino]-1,3-dimethyl-1H-pyrazolo[3,4-b]pyridine-5-carboxylic acid hydroxyamide]	116	60	30			
CC#CCOc1ccc(S(=O)(=O)N(C)c2c(C(=O)NO)cnc3c(OC)cccc23)cc1 [Example 11, 4-[(4-But-2-ynyloxy-benzenesulfonyl)-methyl-amino]-8-methoxy-quinoline-3-carboxylic acid hydroxyamide]	33	58	17	9.2		
CC#CCOc1ccc(S(=O)(=O)N(C)c2c(C(=O)NO)cnc3onc(C)c23)cc1 [Example 9, 4-[(4-But-2-ynyloxy-benzenesulfonyl)-methyl-amino]-3-methyl-isoxazolo[5,4-b]pyridine-5-carboxylic acid hydroxyamide]	244	57	5.9		150	
CC#CCOc1ccc(S(=O)(=O)N(C)c2c(C(=O)NO)cnc3c(Br)cccc23)cc1 [Example 99, 8-Bromo-4-[{[4-(2-butynyloxy)phenyl]sulfonyl} (methyl)amino]-N-hydroxy-3-quinolinecarboxamide]		32		27		82
CC#CCOc1ccc(S(=O)(=O)N(C)c2c(C(=O)NO)cnc3snc(C)c23)cc1 [Example 13, 4-[(4-But-2-ynyloxy-benzenesulfonyl)-methyl-amino]-3-methyl-isothiazolo[5,4-b]pyridine-5-carboxylic acid hydroxyamide]	95	42	14		34	
